Measurements published in paper PMC3828658 (Organic & biomolecular chemistry, 2013).
Entries after “also recorded” stand apart in the source; their conditions may differ.

Assays:
LDH-A [1] = biological target: T1, LDH-A (Homo sapiens, UniProt P00338); assay: Enzyme inhibition of purified human LDH-A; type: biochemical
LDH-A [2] = biological target: T1, LDH-A; assay: Enzyme kinetics, NADH-competition, mixed-model inhibition fit; type: biochemical
HeLa cells [3] = assay: Intracellular concentration / cellular uptake by LC-MS; type: cell-based, human; conditions: 500 μM, 30 minutes
HeLa cells [4] = assay: Lactate production inhibition in HeLa cells quantified by GC-MS; type: cell-based, human; conditions: 8 hours; for effect on lactate production: 50-200 μM
HeLa cells [5] = assay: Anticancer potency, 72 hour Sulforhodamine B assay; type: cell-based, human; conditions: for IC50: Homo sapiens, HeLa, 72 h, read-out: Anticancer potency, 72 hour IC50; for cell death: HeLa cells, 100 μM, 72 hours
LDH-A [6] = conditions: read-out: LDH-A IC50 reported in the literature; cited from earlier work
[7] = cited from earlier work
WT-MEF = assay: Growth inhibition in non-cancerous immortalized cell line, SRB assay; type: cell-based; conditions: 100 μM, 72 hours, preliminary
Stability [8] = type: in vitro ADME, human; conditions: 30 min at 37 °C, 100 μM
Stability [9] = type: in vitro ADME; conditions: RPMI 1640 growth media, 30 min at 37 °C, 100 μM

| SMILES | Ki (LDH-A [2]) | cellular uptake in HeLa cells (HeLa cells [3]; LC-MS) | effect on lactate production (HeLa cells [4]) | IC50 (HeLa cells [5]) | cell death (HeLa cells [5]) | cell death (WT-MEF) | cleavage in HeLa cell lysate (Stability [8]) | stability / cleavage in culture media (Stability [9]) | other results |
| --- | --- | --- | --- | --- | --- | --- | --- | --- | --- |
| Cc1nc2ccc(NC(=O)CCNC(=O)CCCc3ccc(CC(C(=O)O)C(=O)O)cc3)cc2s1 [Compound 3, 2-(4-(4-((3-((2-methylbenzo[d]thiazol-6-yl)amino)-3-oxopropyl)amino)-4-oxobutyl)benzyl)malonic acid, reference compound] | 0.23 µM | could not be detected in lysate | did not show any effect | > 500 µM |  |  |  |  | IC50 (LDH-A [1]): 1 ± 0.2 µM; IC50 (LDH-A [6]): 0.5 µM; activity in cell-based assays (literature) [7]: inactive |
| O=C(O)c1cc2c(C(F)(F)F)cc(-c3ccccc3)cc2n1O [Compound 1, 1-Hydroxy-6-phenyl-4-(trifluoromethyl)-1H-indol-2-carboxylic acid] | 10.8 µM |  |  | 43.8 µM | 100% | less than 20% |  |  | lactate production relative to vehicle (HeLa cells [4]; 100 μM): 70% |
| COC(=O)C(Cc1ccc(CCCC(=O)NCCC(=O)Nc2ccc3nc(C)sc3c2)cc1)C(=O)OC [Compound 4, dimethyl 2-(4-(4-((3-((2-methylbenzo[d]thiazol-6-yl)amino)-3-oxopropyl)amino)-4-oxobutyl)benzyl)malonate, reference compound] |  | efficient cell uptake | significant reduction | 75.4 µM |  |  | substantially cleaved to compound 5 | stable; also recorded: not appreciably cleaved | LDH-A (IC50) [NADH] (LDH-A [1]; NADH-competition assay: 1440 μM sodium pyruvate, 40 μM NADH, mean ± SD): lack of inhibitory potency; monohydrolysis to monoester 5 in HeLa cell lysate (Stability [8]): ~ 50% |
| COC(=O)c1cc2c(C(F)(F)F)cc(-c3ccccc3)cc2n1O [Compound 2, methyl 1-hydroxy-6-phenyl-4-(trifluoromethyl)-1H-indol-2-carboxylate] |  |  |  | 33.4 µM | 100% | approximately 70% | not appreciably cleaved | not appreciably cleaved | concentration in HeLa cell lysate solution relative to free acid 1 (HeLa cells [3]; LC-MS): ~ 4 fold; cleavage of methyl ester following cellular incubation (HeLa cells [3]; HeLa cells): No cleavage; lactate production relative to vehicle (HeLa cells [4]; 200 μM): ~ 20% |
| COC(=O)C(Cc1ccc(CCCC(=O)NCCC(=O)Nc2ccc3nc(C)sc3c2)cc1)C(=O)O (stereo not drawn) [Compound 5, 3-Methoxy-2-(4-(4-((3-((2-methylbenzo[d]thiazol-6-yl)amino)-3-oxopropyl)amino)-4-oxobutyl)benzyl)-3-oxopropanoic acid] |  | no direct cell uptake | failed to result in any substantial reduction |  |  |  |  |  | cell death in HeLa cells (HeLa cells [5]; 72 hour treatment, up to 200 μM): No substantial cell death |
